Read-outs that look alike come from different tables or passages of the source.

One experiment concerns the target H1047R PIK3CA enzyme (Homo sapiens, UniProt P42336, H1047R). As to the kind of experiment: ADP-Glo Biochemical PIK3CA Kinase Assay.
The nature of the next experiment: cells. The settings on record: Homo sapiens, MCF-10A, read-out: MCF10A I50.
[1] abbreviates: ADP-Glo biochemical PIK3CA kinase assay.

Chain of H1047R PIK3CA enzyme (P42336 whole entry H1047R): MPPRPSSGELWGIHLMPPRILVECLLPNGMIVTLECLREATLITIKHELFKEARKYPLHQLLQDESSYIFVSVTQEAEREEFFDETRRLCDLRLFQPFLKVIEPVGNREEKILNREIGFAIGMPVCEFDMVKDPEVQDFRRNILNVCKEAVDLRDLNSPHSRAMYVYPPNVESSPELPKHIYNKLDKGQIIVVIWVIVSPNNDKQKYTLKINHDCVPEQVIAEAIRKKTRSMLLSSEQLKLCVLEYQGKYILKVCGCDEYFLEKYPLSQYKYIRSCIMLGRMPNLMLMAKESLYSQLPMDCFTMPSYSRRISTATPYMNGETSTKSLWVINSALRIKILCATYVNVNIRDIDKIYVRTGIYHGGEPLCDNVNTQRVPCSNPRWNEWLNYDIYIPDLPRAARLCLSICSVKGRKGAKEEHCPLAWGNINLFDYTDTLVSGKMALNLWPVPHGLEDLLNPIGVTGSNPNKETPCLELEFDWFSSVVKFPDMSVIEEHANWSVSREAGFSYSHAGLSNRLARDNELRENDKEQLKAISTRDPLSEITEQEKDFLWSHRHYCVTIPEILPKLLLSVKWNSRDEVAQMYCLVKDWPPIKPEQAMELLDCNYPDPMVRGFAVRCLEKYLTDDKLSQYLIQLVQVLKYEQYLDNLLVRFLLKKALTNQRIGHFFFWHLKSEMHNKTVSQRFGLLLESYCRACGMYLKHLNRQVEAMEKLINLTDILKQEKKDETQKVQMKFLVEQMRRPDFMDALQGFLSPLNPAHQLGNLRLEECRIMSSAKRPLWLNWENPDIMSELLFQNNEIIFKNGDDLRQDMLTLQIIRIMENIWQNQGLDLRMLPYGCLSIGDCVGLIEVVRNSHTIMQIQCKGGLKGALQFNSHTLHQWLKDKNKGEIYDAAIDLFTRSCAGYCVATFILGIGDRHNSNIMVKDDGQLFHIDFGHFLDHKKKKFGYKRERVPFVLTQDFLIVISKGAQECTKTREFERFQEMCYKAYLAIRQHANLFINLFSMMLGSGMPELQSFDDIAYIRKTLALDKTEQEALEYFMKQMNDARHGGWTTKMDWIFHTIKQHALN
Chain of H1047R PIK3CA enzyme (P27986 whole entry partner): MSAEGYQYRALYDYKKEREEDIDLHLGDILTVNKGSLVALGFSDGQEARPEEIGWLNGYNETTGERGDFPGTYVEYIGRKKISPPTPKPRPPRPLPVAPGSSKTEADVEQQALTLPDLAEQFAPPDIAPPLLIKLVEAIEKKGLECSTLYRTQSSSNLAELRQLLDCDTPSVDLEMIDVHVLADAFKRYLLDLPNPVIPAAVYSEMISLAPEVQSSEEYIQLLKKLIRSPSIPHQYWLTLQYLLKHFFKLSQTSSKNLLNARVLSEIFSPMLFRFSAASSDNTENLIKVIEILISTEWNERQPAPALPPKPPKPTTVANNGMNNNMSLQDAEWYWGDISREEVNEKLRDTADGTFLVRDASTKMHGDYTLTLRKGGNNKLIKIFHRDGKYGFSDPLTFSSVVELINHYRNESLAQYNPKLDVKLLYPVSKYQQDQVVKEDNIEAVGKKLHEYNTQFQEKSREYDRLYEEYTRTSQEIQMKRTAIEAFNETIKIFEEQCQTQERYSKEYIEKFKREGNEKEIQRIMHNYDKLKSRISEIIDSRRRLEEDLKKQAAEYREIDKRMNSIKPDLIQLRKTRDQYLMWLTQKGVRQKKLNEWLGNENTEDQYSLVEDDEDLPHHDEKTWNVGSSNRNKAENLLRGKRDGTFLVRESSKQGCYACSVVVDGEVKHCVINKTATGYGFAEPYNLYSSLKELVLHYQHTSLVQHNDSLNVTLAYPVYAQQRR

Regarding `CNC(=O)c1cnc(Nc2ccccc2C)c(NC(=O)c2cc(Cl)cc(Cl)c2)c1` [I-6], the IC50 was 0.5 to 1 µM on H1047R PIK3CA enzyme and 5 to 10 µM in the experiment “cells”.
With `COC[C@@H](C)NC(=O)c1cnc(Nc2ccccc2C)c(NC(=O)c2csc3ccccc23)c1` [I-526], the values for the IC50 at H1047R PIK3CA enzyme (setting [1]) and in “cells” were 1 to 10 µM and 10 to 36 µM, respectively.
Taken in the same sequence, the figures for `Cc1ccccc1Nc1ncc(C(=O)NC2CC(=O)N(C)C2)cc1NC(=O)c1csc2ccccc12` (stereo not shown) [I-434] were 0.1 to 0.5 µM and 5 to 10 µM.
Taken in the same sequence, the figures for `Cc1ccccc1Nc1c(F)cc(C(=O)NC2CS(=O)(=O)C2)cc1NC(=O)c1csc2ccccc12` [I-774] were not above 0.1 µM and 10 to 36 µM.
For `Cc1ccccc1Nc1ncc(C(=O)NCc2ccon2)cc1NC(=O)c1csc2ccccc12` [I-560], the IC50 at H1047R PIK3CA enzyme (setting [1]) is not above 0.1 µM; in the experiment “cells”, 1 to 5 µM.
For the molecule `CNC(=O)c1cnc(Nc2ncccc2C)c(NC(=O)c2csc3ccccc23)c1` [I-335], the IC50 lay within 0.5 to 1 µM against H1047R PIK3CA enzyme and 10 to 36 µM in the experiment “cells”.
For `Cc1ccccc1Nc1cc(=O)n(CC(=O)O)cc1NC(=O)c1csc2ccccc12` [I-310] the same measures were 10 to 100 µM and 36 to 100 µM.
As to `Cc1ccccc1Nc1ncc(C(=O)NCC2CS(=O)(=O)C2)cc1NC(=O)c1csc2ccccc12` [I-137], the results for the IC50 against H1047R PIK3CA enzyme and in the experiment “cells” were 0.1 to 0.5 µM and 5 to 10 µM, respectively.
On to `CNC(=O)c1cnc(Nn2nccc2C(F)(F)F)c(NC(=O)c2csc3ccccc23)c1` [I-772], for which the IC50 on H1047R PIK3CA enzyme (setting [1]) was not above 0.1 µM; in the experiment “cells”, 1 to 5 µM.
Consider `Cc1ccccc1Nc1ncc(Br)cc1NC(=O)c1cc(F)cc(C(F)(F)F)c1` [I-60], for which the IC50 on H1047R PIK3CA enzyme fell in the range of 1 to 10 µM; in “cells”, 1 to 5 µM.
Take `Cc1ccccc1Nc1ncc(C(=O)NC2COCC(O)C2)cc1NC(=O)c1csc2ccccc12` (stereo not shown) [I-585]: the IC50 at H1047R PIK3CA enzyme (setting [1]) was in the range of 0.1 to 0.5 µM; in the experiment “cells”, 10 to 36 µM.
For `CNC(=O)c1cnc(N)c(NC(=O)c2csc3ccccc23)c1` [I-676], the IC50 at H1047R PIK3CA enzyme (setting [1]) lay in the range of 0.5 to 1 µM; in “cells” it was 10 to 36 µM.
`Cc1ccccc1Nc1ncc(C(=O)NC2COC2)cc1NC(=O)c1csc2ccccc12` [I-192]: the IC50 at H1047R PIK3CA enzyme lay in the range of 0.1 to 0.5 µM; in the experiment “cells”, 36 to 100 µM.
On to `CNC(=O)c1cnc(Nc2ccccc2C)c(NC(=O)c2cc(F)c(F)c(C(F)(F)F)c2)c1` [I-677], for which the IC50 against H1047R PIK3CA enzyme (setting [1]) was 1 to 10 µM; in “cells” it was 10 to 36 µM.
Taken in the same sequence, the figures for `COc1cc(CCNC(=O)c2cnc(Nc3ccccc3C)c(NC(=O)c3csc4ccccc34)c2)ccn1` [I-598] were 0.1 to 0.5 µM and 5 to 10 µM.
`Cc1ccccc1Nc1ncc(C(=O)NC2CCS(=O)(=O)C2)cc1NC(=O)c1cc(F)cc(C(F)(F)F)c1` (stereo not shown) [I-247]: the results for the IC50 against H1047R PIK3CA enzyme and in the experiment “cells” were 0.1 to 0.5 µM and less than 1 µM, respectively.
For `Cc1ccccc1Nc1ncc(C(=O)NCc2nccs2)cc1NC(=O)c1csc2ccccc12` [I-138] the same measures were not above 0.1 µM and 5 to 10 µM.
For `Cc1cc(Cn2cc(NC(=O)c3csc4ccccc34)c(Nc3ccccc3C)cc2=O)no1` [I-390] the same measures were 0.1 to 0.5 µM and 10 to 36 µM.
Consider `CNC(=O)c1cnc(Nc2ccccc2C)c(NC(=O)c2cnn3cccc(Br)c23)c1` [I-468], for which the IC50 at H1047R PIK3CA enzyme (setting [1]) was 1 to 10 µM; in the experiment “cells”, 10 to 36 µM.
In the case of `Cc1ccccc1Nc1ncccc1NC(=O)c1cc(F)cc(C(F)(F)F)c1` [I-11], the IC50 was in the range of 1 to 10 µM against H1047R PIK3CA enzyme and 10 to 36 µM in the experiment “cells”.
Taken in the same sequence, the figures for `CNC(=O)c1cnc(Nc2ccccc2C)c(NC(=O)c2csc3ccccc23)c1` [I-41] were 0.1 to 0.5 µM and 10 to 36 µM.
For `CNC(=O)c1cnc(Nc2ccccc2C(C)C)c(NC(=O)c2cc(F)cc(C(F)(F)F)c2)c1` [I-298] the same measures were 1 to 10 µM and 36 to 100 µM.
Taken in the same sequence, the figures for `CNC(=O)c1cnc(N2C(=O)NCc3ccccc32)c(NC(=O)c2csc3ccccc23)c1` [I-215] were 1 to 10 µM and 36 to 100 µM.
As to `CNC(=O)c1cnc(Nc2ccccc2C)c(NC(=O)c2cccc3[nH]c(C(F)(F)F)nc23)c1` [I-530], the values for the IC50 at H1047R PIK3CA enzyme (setting [1]) and in “cells” were 0.1 to 0.5 µM and 10 to 36 µM, respectively.
On to `Cc1ccccc1Nc1ncc(C(=O)NCC(F)(F)F)cc1NC(=O)c1csc2ccccc12` [I-196], for which the IC50 at H1047R PIK3CA enzyme was in the range of 0.1 to 0.5 µM; in the experiment “cells”, 5 to 10 µM.
With `Cc1ccccc1Nc1ncc(C(=O)NCCn2ccnn2)cc1NC(=O)c1csc2ccccc12` [I-570], the IC50 against H1047R PIK3CA enzyme (setting [1]) was 0.1 to 0.5 µM; in “cells”, 10 to 36 µM.
In the case of `Cc1ccccc1Nc1ncc(-c2ccc(C#N)cc2)cc1NC(=O)c1cc(F)cc(C(F)(F)F)c1` [I-46], the results for the IC50 against H1047R PIK3CA enzyme and in the experiment “cells” were 0.1 to 0.5 µM and 1 to 5 µM, respectively.
Turning to `O=C1C[C@@H](CNC(=O)c2cc(F)cc(C(F)(F)F)c2)[C@H](c2cc(F)ccc2Cl)N1` (racemic) [I-801, N-{[(2R,3S)-2-(2-chloro-5-fluorophenyl)-5-oxopyrrolidin-3-yl]methyl}-3-fluoro-5-(trifluoromethyl)benzamide], the results for the IC50 on H1047R PIK3CA enzyme and in the experiment “cells” were 0.1 to 0.5 µM and 1 to 5 µM, respectively.
As for `Cc1ccccc1Nc1ncc(C(=O)N[C@@H]2COC[C@@H]2F)cc1NC(=O)c1csc2ccccc12` [I-590], the IC50 at H1047R PIK3CA enzyme (setting [1]) was in the range of 0.1 to 0.5 µM; in the experiment “cells”, 5 to 10 µM.
As to `CNC(=O)c1cnc(Nc2ccccc2C)c(NC(=O)c2ccc3nnc(Br)n3c2)c1` [I-564], the IC50 on H1047R PIK3CA enzyme (setting [1]) lay within 0.5 to 1 µM; in “cells”, 10 to 36 µM.
Consider `Cc1ccccc1Nc1ncc(C(=O)NC2C[S+]([O-])C2)cc1NC(=O)c1csc2ccccc12` (stereo not shown) [I-311], for which the results for the IC50 at H1047R PIK3CA enzyme and in the experiment “cells” were not above 0.1 µM and 1 to 5 µM, respectively.
For `CNC(=O)c1cnc(Nc2ccc(C)cc2)c(NC(=O)c2cc(F)cc(C(F)(F)F)c2)c1` [I-36] the same measures were 0.5 to 1 µM and 10 to 36 µM.
`CNC(=O)c1cnc(Nc2ccccc2OC)c(NC(=O)c2csc3ccccc23)c1` [I-407]: the IC50 on H1047R PIK3CA enzyme (setting [1]) fell in the range of 1 to 10 µM; in “cells” it was 36 to 100 µM.
For `Cc1ccccc1Nc1ncc(C(=O)NC2NC(=O)c3ccccc32)cc1NC(=O)c1csc2ccccc12` (stereo not shown) [I-568] the same measures were not above 0.1 µM and 1 to 5 µM.
Regarding `Cc1ccccc1Nc1ncc(C(=O)NC2CCCS(=O)(=O)C2)cc1NC(=O)c1cc(F)cc(C(F)(F)F)c1` (stereo not shown) [I-246], the values for the IC50 against H1047R PIK3CA enzyme and in the experiment “cells” were 0.1 to 0.5 µM and less than 1 µM, respectively.
With `CNC(=O)c1cnc(Nc2ccccc2F)c(NC(=O)c2cc(F)cc(C(F)(F)F)c2)c1` [I-300], the IC50 against H1047R PIK3CA enzyme was 1 to 10 µM; in “cells” it was 36 to 100 µM.
For `Cc1ccccc1Nc1nc2ccccc2cc1NC(=O)N1CC(O)c2ccccc21` (stereo not shown) [I-828, 3-hydroxy-N-(2-(o-tolylamino)quinolin-3-yl)indoline-1-carboxamide] the same measures were 0.5 to 1 µM and 5 to 10 µM.
On to `CNC(=O)c1cnc(Nc2ccccc2C)c(NC(=O)C2(c3ccccc3Cl)CC2)c1` [I-499], for which the IC50 was not above 0.1 µM on H1047R PIK3CA enzyme (setting [1]) and 10 to 36 µM in the experiment “cells”.
Take `CNC(=O)c1cnc(Nc2cccc(N)c2)c(NC(=O)c2cc(F)cc(C(F)(F)F)c2)c1` [I-286]: the IC50 against H1047R PIK3CA enzyme lay within 1 to 10 µM; in the experiment “cells” it was 10 to 36 µM.
Consider `Cc1ccccc1Nc1ncc(C(=O)N[C@@H]2c3ccccc3C[C@@H]2O)cc1NC(=O)c1csc2ccccc12` [I-506], for which the IC50 on H1047R PIK3CA enzyme (setting [1]) is 0.1 to 0.5 µM; in the experiment “cells”, 5 to 10 µM.
For the molecule `COCCNC(=O)c1cnc(Nc2ccccc2C)c(NC(=O)c2csc3ccccc23)c1` [I-190], the figures for the IC50 at H1047R PIK3CA enzyme and in “cells” were 0.1 to 0.5 µM and 10 to 36 µM, respectively.
Taken in the same sequence, the figures for `CNC(=O)c1cnc(Nc2cccc(C(C)(C)C)c2)c(NC(=O)c2cc(F)cc(C(F)(F)F)c2)c1` [I-297] were 1 to 10 µM and 36 to 100 µM.
On to `Cc1cc(CNC(=O)c2cnc(Nc3ccccc3C)c(NC(=O)c3csc4ccccc34)c2)no1` [I-604], for which the IC50 against H1047R PIK3CA enzyme (setting [1]) was not above 0.1 µM; in “cells”, 1 to 5 µM.
Take `Cc1ccccc1Nc1ncc(C(=O)NCC(=O)N2CCCC2)cc1NC(=O)c1csc2ccccc12` [I-597]: the IC50 against H1047R PIK3CA enzyme (setting [1]) was 1 to 10 µM; in “cells”, 36 to 100 µM.
Take `Cc1ccccc1Nc1ncc(C(=O)NC2CC(F)(F)C2)cc1NC(=O)c1cc(F)cc(C(F)(F)F)c1` [I-212]: the values for the IC50 against H1047R PIK3CA enzyme and in “cells” were 0.1 to 0.5 µM and 1 to 5 µM, respectively.
Take `Cc1ccccc1Nc1ncc(C(=O)N[C@H]2CCC(F)(F)C[C@@H]2O)cc1NC(=O)c1csc2ccccc12` [I-571]: the IC50 at H1047R PIK3CA enzyme (setting [1]) is 0.1 to 0.5 µM; in “cells”, 1 to 5 µM.
Consider `Cc1ccccc1Nc1ncc(C(=O)NCC2CC(F)(F)C2)cc1NC(=O)c1cc(F)cc(C(F)(F)F)c1` [I-211], for which the IC50 against H1047R PIK3CA enzyme is 0.1 to 0.5 µM; in the experiment “cells” it was 1 to 5 µM.
`CNC(=O)c1cnc(Nc2nc(C)c(C)s2)c(NC(=O)c2cc(F)cc(C(F)(F)F)c2)c1` [I-301]: the IC50 is 0.5 to 1 µM at H1047R PIK3CA enzyme and 10 to 36 µM in the experiment “cells”.
Turning to `CNC(=O)c1cnc(Nc2nn(C)cc2Br)c(NC(=O)c2cc(F)cc(C(F)(F)F)c2)c1` [I-305], the figures for the IC50 at H1047R PIK3CA enzyme and in “cells” were 10 to 100 µM and 36 to 100 µM, respectively.
As to `CNC(=O)c1cnc(Nc2cccc(Cl)c2)c(NC(=O)c2cc(F)cc(C(F)(F)F)c2)c1` [I-287], the values for the IC50 on H1047R PIK3CA enzyme and in “cells” were 1 to 10 µM and 36 to 100 µM, respectively.
For `Cc1ccccc1Nc1ncc(C(=O)NCc2ccn(C)n2)cc1NC(=O)c1cc(F)cc(C(F)(F)F)c1` [I-178] the same measures were 0.1 to 0.5 µM and 1 to 5 µM.
Taken in the same sequence, the figures for `Cc1ccccc1Nc1ncc(C(=O)NCCS(C)(=O)=O)cc1NC(=O)c1cc(F)cc(C(F)(F)F)c1` [I-219] were 0.1 to 0.5 µM and 1 to 5 µM.
With `Cc1ccccc1Nc1ncc(C(=O)NCc2ccnn2C)cc1NC(=O)c1cc(F)cc(C(F)(F)F)c1` [I-52], the figures for the IC50 against H1047R PIK3CA enzyme and in the experiment “cells” were 0.1 to 0.5 µM and 1 to 5 µM, respectively.
Take `Cc1ccccc1Nc1cc(=O)[nH]cc1NC(=O)c1csc2ccccc12` [I-308]: the IC50 on H1047R PIK3CA enzyme was 1 to 10 µM; in the experiment “cells”, 36 to 100 µM.
As to `Cc1ccccc1Nc1ncc(-c2cnn(C)c2)cc1NC(=O)c1csc2ccc(F)cc12` [I-146], the IC50 fell in the range of 0.1 to 0.5 µM at H1047R PIK3CA enzyme and 1 to 5 µM in “cells”.
For `Cc1ccccc1Nc1cnc(C(=O)NC2CS(=O)(=O)C2)cc1NC(=O)c1cc(F)cc(C(F)(F)F)c1` [I-343] the same measures were 1 to 10 µM and less than 1 µM.

(Values after US20250090540A1, “PI3K-ALPHA INHIBITORS AND METHODS OF USE THEREOF” (Relay Therapeutics, Inc., priority 2021, published 2025).)
